Test results: ChEMBL document CHEMBL1143793, “Solid-phase synthesis of Stat3 inhibitors incorporating O-carbamoylserine and O-carbamoylthreonine as glutamine mimics” (Bioorg Med Chem Lett, 2007)

What follows are compounds tested against Signal transducer and activator of transcription 3 (Homo sapiens, UniProt P40763) (assay: Inhibition of Stat3).
Signal transducer and activator of transcription 3, sequence (P40763 whole entry): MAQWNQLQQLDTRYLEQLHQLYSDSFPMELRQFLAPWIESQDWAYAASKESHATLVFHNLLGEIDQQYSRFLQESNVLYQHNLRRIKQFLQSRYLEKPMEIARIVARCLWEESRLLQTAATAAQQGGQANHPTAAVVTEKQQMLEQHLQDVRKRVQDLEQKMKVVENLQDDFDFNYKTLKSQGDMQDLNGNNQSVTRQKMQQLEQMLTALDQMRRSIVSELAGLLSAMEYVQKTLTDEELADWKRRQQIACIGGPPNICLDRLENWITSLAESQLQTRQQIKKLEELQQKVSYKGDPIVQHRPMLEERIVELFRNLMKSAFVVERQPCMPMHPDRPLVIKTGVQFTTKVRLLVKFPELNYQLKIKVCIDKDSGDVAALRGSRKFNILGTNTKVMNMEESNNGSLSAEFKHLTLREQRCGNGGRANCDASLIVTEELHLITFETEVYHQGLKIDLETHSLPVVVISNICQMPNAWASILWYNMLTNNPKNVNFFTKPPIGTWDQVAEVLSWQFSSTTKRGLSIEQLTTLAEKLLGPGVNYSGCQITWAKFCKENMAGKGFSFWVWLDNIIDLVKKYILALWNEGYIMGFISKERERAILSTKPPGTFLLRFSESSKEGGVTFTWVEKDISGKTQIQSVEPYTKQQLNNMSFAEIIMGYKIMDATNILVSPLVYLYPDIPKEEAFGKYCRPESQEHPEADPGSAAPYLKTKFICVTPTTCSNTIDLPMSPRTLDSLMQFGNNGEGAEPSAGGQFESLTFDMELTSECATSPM
With `CC(C)C[C@H](NC(=O)/C=C/c1ccc(OP(=O)(O)O)cc1)C(=O)N1CCC[C@H]1C(=O)N[C@@H](CCC(N)=O)C(=O)NCc1ccccc1` the IC50 was 135 nM.
`CC(C)C[C@H](NC(=O)/C=C/c1ccc(OP(=O)(O)O)cc1)C(=O)N1CCC[C@H]1C(=O)N[C@H](C(=O)NCc1ccccc1)[C@@H](C)OC(N)=O` was tested, and the IC50 was 850 nM.
`CC(C)C[C@H](NC(=O)/C=C/c1ccc(OP(=O)(O)O)cc1)C(=O)N1CCC[C@H]1C(=O)N[C@@H](COC(N)=O)C(=O)NCc1ccccc1` was tested, and the IC50 was 379 nM.
